Experiments:
ob/ob mice [1] = test: Liver enzymes AST/GOT and ALT/GPT in sera of ob/ob mice; assay type: in vivo; conditions: 21 days, orally 50 mg/kg, vs untreated or troglitazone-treated mice
COX-2 = target: T1, COX-2 (Mus musculus, UniProt Q05769); test: LPS-induced COX-2 activity in RAW cells (PGE2 production); assay type: cell-based; conditions: 0.1-100 μM, FIG. 12
T1 sequence (Q05769 18-604): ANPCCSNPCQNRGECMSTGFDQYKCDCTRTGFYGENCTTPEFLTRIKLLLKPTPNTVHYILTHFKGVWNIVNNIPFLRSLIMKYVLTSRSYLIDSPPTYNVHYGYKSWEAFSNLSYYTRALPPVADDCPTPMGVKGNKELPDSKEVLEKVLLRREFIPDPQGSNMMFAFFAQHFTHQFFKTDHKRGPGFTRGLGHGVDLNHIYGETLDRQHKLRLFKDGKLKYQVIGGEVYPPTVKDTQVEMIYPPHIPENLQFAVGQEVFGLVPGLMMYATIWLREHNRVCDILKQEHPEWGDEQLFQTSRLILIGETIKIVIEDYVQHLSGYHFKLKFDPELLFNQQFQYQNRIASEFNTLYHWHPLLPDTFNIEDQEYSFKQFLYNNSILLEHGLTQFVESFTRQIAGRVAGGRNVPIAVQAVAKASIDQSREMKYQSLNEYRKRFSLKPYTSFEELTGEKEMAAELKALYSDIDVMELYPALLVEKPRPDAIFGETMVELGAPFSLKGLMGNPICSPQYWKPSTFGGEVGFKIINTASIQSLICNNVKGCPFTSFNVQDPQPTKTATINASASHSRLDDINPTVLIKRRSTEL
Experimental: After 1 hour LPS (0.1 pg/mL) was added and cells were incubated an additional 6 hours. Cell supernatant was then collected, aliquoted and frozen at −70° C., and aliquots used to determine COX-2 and COX-1 activity. Compound 11, but not rosiglitazone, inhibited the activity of COX-2 (as measured by PGE2 production in a 50 μl sample).

3T3-L1 adipocytes = test: Glucose uptake in differentiated 3T3-L1 adipocytes; assay type: cell-based
Experimental: Referring to FIG. 8 glucose uptake in 3T3-L1 differentiated adipocytes was measured after treatment with the test compound. The assay was conducted according to the method of Tafuri, Endocrinology, 137, 4706-4712 (1996). The serum-starved cells were treated with the test compound for 48 hours at different concentrations, then washed and incubated in glucose-free media for 30 minutes at 37° C. Then ^14C-deoxyglucose was added and uptake was monitored for 30 minutes under incubation. After washing, the cells were lysed (0.1% SIDS) and counted.
Basal glucose uptake was measured in differentiated 3T3-L1 adipocytes following the protocol of Tafuri (6) with modifications. Briefly, 3T3-L1 fibroblasts, obtained from ATCC (Manassas, Va.), were differentiated to adipocytes by treating cells with porcine insulin (1 μg/ml for 4 days), dexamethasone (0.25 μM for first 2 days) and isobutyl methyl xanthine (IBMX, 0.5 mM for first 2 days) (all from Sigma Chemicals, St Louis, Mo.) following the protocol of Frost and Lane (7). Differentiated adipocytes were incubated in Dulbecco's Modified Eagle Medium (DMEM) containing 10% fetal bovine serum (GibcoBRL, Gaithersburg, Md.) with various concentrations of Compound 11 or vehicle (0.1% DMSO) for 48 h in 24-well plates, in triplicate. Cells were washed with phosphate buffered saline (PBS, 150 mM NaCl, 1 mM KH2PO4, 3 mM Na2HPO4; pH 7.4) and incubated in glucose-free DMEM for 2 h at 37° C. The cells were washed 3 times with Krebs Ringer Phosphate Buffer (KRP). Glucose uptake was initiated by addition of 0.25 μCi 2-^14C(U)-deoxy-D-glucose (300 μCi/mmol, American Radiolabeled Chemicals Inc., St Louis, Mo.) per well and the cells incubated for 10 min at room temperature in the presence of 0.1 mmol cold 2-deoxy-D-glucose. Finally, the cells were washed three times with ice-cold PBS containing 10 mM cold glucose, lysed with 0.5% SDS, and counted in a scintillation counter (Beckman LS6500).

3T3-L1 fibroblasts = test: Adipogenesis (triglyceride accumulation) in 3T3-L1 fibroblasts
Experimental: After two days of growth in 6-well plates, cells were treated either with vehicle (0.1% DMSO) or with compounds for ten days. Fresh medium with compounds or vehicle was replenished every 48 h. Cells were washed with PBS twice and fixed in 10% formalin (Sigma) in PBS. After washing in PBS, cells were stained with freshly diluted Oil Red O in isopropanol for 1 h at room temperature. The cells were washed five times with PBS and visualized under an Olympus BH2 microscope. Quantitative accumulation of triglyceride was also measured under similar experimental conditions, except in this case cells were plated in 100-mm tissue culture dishes. Triglyceride was extracted with methanol:chloroform (2:1) mixture. […] Extracted triglyceride was measured by a colorimetric assay (GPO-Trinder, Sigma) according to manufacturer instructions.
After 14 days cells were stained with Oil Red O, counterstained with methylene blue for visual assessment (FIG. 23B) and assayed for triglyceride accumulation.

DBA/1 Lac mice = test: Collagen-induced arthritis in mice; assay type: in vivo; conditions: 50 mg/kg orally daily for 17 days
NF-kB p65 = NF-kB p65 activation in LPS-stimulated RAW cells (ELISA); assay type: cell-based; conditions: 10 μM, 1 μg/ml LPS 15 min, FIG. 15
ob/ob mice [2] = test: Antihyperglycemic activity and serum parameters in ob/ob mice; assay type: in vivo; design: decrease in triglyceride as compared to the control / lowering of FFA compared to the control / decrease in the GHb level compared to the control / reduction of serum insulin / reduction of triglycerides / reduction of free fatty acid (FFA) levels: concentration or dose not given beside the values
[3] = after fourteen days of treatment, p<0.05 vs vehicle
[4] = ob/ob mice, 50 mg/kg, 14 days, FIG. 17A

COC(=O)C(=Cc1cc(OC)cc(OC)c1)c1ccc(Oc2ccc(CC3SC(=O)NC3=O)cc2)cc1 (stereo not drawn) [Compound 11, 3-(3,5-Dimethoxyphenyl)-2-{4-[4-(2,4-dioxothiazolidin-5-ylmethyl)-phenoxy]-phenyl}-acrylic acid methyl ester]
AST level (ob/ob mice [1]; FIG. 7A): not elevated
ALT level (ob/ob mice [1]; FIG. 7B): did not elevate
inhibition of COX-2 activity (PGE2 production) (COX-2): inhibited
glucose uptake activity in words (3T3-L1 adipocytes; 0.1 μM): retained activity, but less than that of rosiglitazone
glucose uptake activity in words (3T3-L1 adipocytes; 1 μM): comparable to rosiglitazone
effect on insulin-stimulated glucose uptake (3T3-L1 adipocytes; 5 μM with increasing insulin, FIG. 20B): additive, not synergistic
maximum glucose uptake over basal levels (3T3-L1 adipocytes; 0.01-10 μM, 48 h, mean±SE, FIG. 20A): 1.33±0.02 fold
% Glucose uptake 0.1 μm (3T3-L1 adipocytes; 0.1 μm, average of quadruplicate ± SD): 161.6 ± 11.4 % basal of the non treated cells
% Glucose uptake 1.0 μm (3T3-L1 adipocytes; 1.0 μm, average of quadruplicate ± SD): 218.1 ± 10.0 % basal of the non treated cells
blood glucose level (db/db mice; db/db male mice, oral 50 mg/kg, 15 days, FIG. 1A): substantial reduction
decrease in blood glucose levels (db/db mice; db/db mice, 50 mg/kg oral once daily, 8 to 9 days, FIG. 21): 32 % vs. baseline
blood glucose lowering effect (db/db mice; db/db mice, 50 mg/kg/day orally, 14 days, FIG. 16A): dramatic, comparable blood glucose lowering effects
drop in triglyceride levels (db/db mice; db/db mice, after 15 days of treatment, FIG. 5A): 24%
drop in FFA levels (db/db mice; db/db mice, after 15 days of treatment, FIG. 5B): 34%
drop in the GHb level (db/db mice; db/db mice, after 15 days of treatment, FIG. 5C): 0.7%
increase in the serum leptin level compared to the control group (db/db mice; db/db mice, after 15 days of treatment, FIG. 5D): 23 °/a
glucose lowering effect, maximal at 24 hrs (db/db mice; db/db mice, single oral dose 50 mg/kg, at 24 hrs): 23 % of 0 min
duration of effect on blood glucose (db/db mice; db/db mice, single oral dose, FIG. 4): ≥ 24 h
maximal triglyceride accumulated, increase over control (3T3-L1 fibroblasts; 3T3-L1 fibroblasts, 0.1, 1, 10 μM, no dexamethasone, insulin, IBMX, FIG. 23A): 3.96 fold
cytotoxic concentrations (3T3-L1 fibroblasts; 3T3-L1 system, data not shown): ≥ 100 µM
body weight vs vehicle group (DBA/1 Lac mice; FIG. 13A): no change
clinical scores vs vehicle treated group (DBA/1 Lac mice; FIG. 13B): significantly lower
joints affected vs vehicle treated group (DBA/1 Lac mice; FIG. 13C): significantly lower
paw thickness vs vehicle treated group (DBA/1 Lac mice; FIG. 13D): significantly lower
inhibition of the activation of NF-kB (p65) (NF-kB p65): inhibited
reduction of free fatty acid (FFA) levels (ob/ob mice [2]; [3]): 33%
reduction of serum insulin (ob/ob mice [2]; [3]): 58%
reduction of triglycerides (ob/ob mice [2]; [3]): 65%
glycosylated hemoglobin after treatment (ob/ob mice [2]; after fourteen days of treatment, reduced from 5.2%, p=0.15, FIG. 18): 3.8%
dose response of glucose lowering (ob/ob mice [2]; ob/ob mice (n=8), three different doses, FIG. 19): dose dependent glucose lowering effect
weight gain in treated and control animals (ob/ob mice [2]; ob/ob mice, 50 mg/kg oral once daily, 8 to 9 days): similar
decrease in blood glucose levels (ob/ob mice [2]; ob/ob mice, 50 mg/kg oral once daily, 8 to 9 days, FIG. 21): 59 % vs. baseline
normalization of blood glucose levels (ob/ob mice [2]; [4]): normalized by three days
time to significant decrease of blood glucose levels (ob/ob mice [2]; [4]): ≤ 48 h
body weight compared to vehicle treated group (ob/ob mice [2]; ob/ob mice, 50 mg/kg, 14 days, FIG. 17B): did not see any increase
drop of serum insulin (ob/ob mice [2]; ob/ob mice, after 10 days of treatment, FIG. 6A): 58%
lowering of FFA compared to the control (ob/ob mice [2]; ob/ob mice, after 10 days of treatment, FIG. 6C): 33%
decrease in the GHb level compared to the control (ob/ob mice [2]; ob/ob mice, after 14 days of treatment, FIG. 6D): 1.3%
decrease in triglyceride as compared to the control (ob/ob mice [2]; ob/ob mice, after treatment for 10 days, FIG. 6B): 65%
drop in blood glucose level (ob/ob mice [2]; ob/ob mice, oral 50 mg/kg, 15 days, FIG. 2A): 62%
body weight, control vs treatment group (ob/ob mice [2]; ob/ob mice, oral 50 mg/kg, FIG. 2B): no significant increase
in vivo potency relative to rosiglitazone on a mole-per-mole basis (more potent) (ob/ob mice [2]; ob/ob mice, same glucose lowering at 10 mg/kg): 46%

From patent US20060235062A1, “Novel heterocyclic analogs of diphenylethylene compounds” (THERACOS, INC., priority 2002, published 2006)
